Assay results published in article PMC11511111, “Scoliidines: Neuroprotective Peptides in Solitary Scoliid Wasp Venoms” (Toxins, 2024).
Where no end group is shown, it is not given here.

Tests used:
PC12 neuronal cells [1] = assay: PC12 mitochondrial metabolism (MTT reduction) / neuroprotection against H2O2-induced oxidative stress; format: cell-based; conditions: H2O2 0.5 mmol·L^−1, 20 h, percent compared to control group, oxidative stress model
Experimental: PC12 cells were pre-treated with γ-, δ- or ε-scoliidines for 4 h and then exposed to γ-, δ- or ε-scoliidines containing H2O2 for an additional 20 h, providing a protective model (Figure 3A). Cells subjected to a 20-h exposure to H2O2 represent an oxidative stress model.
Figure 3 Neuroprotective property of γ-, δ- and ε-scoliidines on mitochondrial metabolism of the PC12 cell line against H2O2-induced oxidative stress. (A) The experiment involved treating cells (5 × 10^3 cells per well in a 96-well plate) with γ, δ, and ε scoliidines (1 μmol·L^−1) for 4 h at 37 °C. After that, the medium was changed with a solution containing peptide (1 μmol·L^−1) and H2O2 (0.5 mmol·L^−1), and the cells were incubated for an additional 20 h. (B) Protective effects of peptides against neurotoxicity caused by oxidative stress. […]
PC12 cells (5 × 10^3 cells per well) seeded in a 96-well plate (Nest Biotechnology, Rahway, NJ, USA) were used to study the neuroprotective effects of peptides against H2O2-induced oxidative stress, according to a previous study. […] The mitochondrial metabolism was analyzed by 3-(4,5-dimethylthiazol-2-yl)-2,5-diphenyltetrazolium bromide (MTT; 0.5 mg·mL^−1 for 3 h of incubation at 37 °C) reduction assay. The absorbance of the MTT formazan dissolved in 100% DMSO was measured at a wavelength of 540 nm using a spectrophotometer (BioTek Instruments, Inc., Winooski, VT, USA). […]

PC12 cells = assay: PC12 cytotoxicity (crystal violet cell viability); format: cell-based; conditions: result in words
Experimental: Figure 2 Cytotoxic effects of γ-, δ- and ε-scoliidines on PC12 viability. The cells were exposed to peptides at different concentrations and times. The control and DMSO groups correspond to cells that have not been treated and cells that have been treated with a 5% concentration of DMSO, respectively. […] Statistical analysis was conducted using a one-way analysis of variance (ANOVA), followed by Dunnett’s post-test. The statistical difference when compared to the control group (p < 0.05) was indicated by asterisks.
(§1) All chemicals used here were analytical reagent grade (purity higher than 95%) purchased from different brands. The AChE enzyme was derived from Electrophorus electricus Type VI-S, and the ACE I enzyme was derived from rabbit lung and was acquired from Sigma-Aldrich Corporation (St. Louis, MO, USA). Neprilysin and the substrates [Abz-FRK (Dnp) P-OH and Abz-RGFK (Dnp)-OH] were supplied by Prof. Adriana Carmona from the Department of Biophysics at Federal University of São Paulo (SP, Brazil). PC12 cell (American Type Culture Collection ® CRL-1721™; Manassas, VA, USA) was used in the present study. Cells were routinely cultured in DMEM medium (Sigma-Aldrich Corporation; St. Louis, MO, USA), according to a previous study.
The cytotoxicity assay was performed using the staining of attached cells with crystal violet dye, according to the literature. Briefly, PC12 cells (5 × 10^3 cells per well; 96-well plates) were treated with different concentrations and times. Untreated cells or treated with DMSO (5%; v·v^−1) were included as controls. We measured the absorbance of dye solubilized in methanol at 570 nm using a microplate reader (BioTek Instruments, Inc., Winooski, VT, USA). We collected data from three distinct examinations, each performed three times, showing the percentage of cell viability relative to the control.
All results are shown as mean ± SD from three separate experiments (n = 3) in triplicate. One-way analysis of variance (ANOVA) was used for between-group comparisons, and Dunnett’s post-hoc test was used for multiple comparisons. Statistical significance was defined as p < 0.05. The analyses were done using GraphPad Prism 6.0 (GraphPad Software, Inc., La Jolla, CA, USA).

human neprilysin (NEP) = assay: Peptide stability / cleavage by neprilysin; format: in vitro ADME; conditions: relative hydrolysis ratio; peptide 30 µmol·L^−1, NEP 7.5 ng, 37 °C, 4 h
Source text: as §1
(§2) The stability tests of peptides (30 µmol·L^−^1) were tested after incubation separately with ACE and NEP (7.5 ng) at 37 °C for 4 h, according to previous reports.

[2] = system: angiotensin-converting enzyme (ACE); assay: Peptide stability / cleavage by angiotensin-converting enzyme; format: in vitro ADME, rabbit; conditions: relative hydrolysis ratio; peptide 30 µmol·L^−1, ACE 7.5 ng, 37 °C, 4 h
Source text: as §1, §2

[3] = system: acetylcholine (ACh) receptors of insect central nervous system; conditions: result in words; insects' central nervous system; ref [18],[19],[20]; cited from earlier work
Source text: Scoliid wasp venoms were the first solitary wasp venoms to be studied between the years 1987 and 1990, and the presence of bradykinin-related peptides was reported. […] Since the f ...

neuronal PC12 cells = conditions: result in words, ref [26]; cited from earlier work
Source text: (§3) In recent years, our investigation has focused on scoliid wasp venoms. Scoliid wasps hunt and sting beetle larvae under the ground. Comprehensive LC-MS and MS/MS analysis of the venom extract from Scolia decorata ventralis identified two major peptide components named α- and β-scoliidine. […] This is the first case of solitary wasp venom peptides showing neuroprotective activity. Similarly, venom components of Campsomeriella annulata annulata were in ...

[4] = system: acetylcholinesterase (AChE); assay: Acetylcholinesterase (AChE) activity, Ellman's method; format: biochemical, Electrophorus electricus; conditions: compared to control (100 ± 1.6%), mean ± SD
Source text: Figure 4 Effects of γ-, δ- and ε-scoliidines on the function of acetylcholinesterase (AChE). The AChE activity was quantified as a percentage of hydrolyzed acetylthiocholine iodine substrate compared to the control (C; blank box). The data obtained from three separate experiments, each performed three times, is presented as mean ± SD.
as §1
The inhibition of AChE activity was determined spectrophotometrically based on Ellman’s method, as previously reported. We calculated AChE activity as the hydrolyzed acetylthiocholine iodide substrate concentration as a percentage of control.
All results are shown as mean ± SD from three separate experiments (n = 3) in triplicate. […]

PC12 neuronal cells [5] = conditions: result in words, ref [25]; cited from earlier work
Source text: as §3

[6] = all concentrations and times assessed, 570 nm

OO [H2O2]
mitochondrial metabolism of PC12 cells treated only with H2O2 (PC12 neuronal cells [1]): 75.8 ± 2.4%

DYVTVKGFSPLREP [ε-scoliidine]
cell viability (PC12 cells; 0.01 μmoL·L^−1, up to 6 h of treatment, 570 nm, three experiments in triplicate): enhanced cell viability
cell viability (PC12 cells; 10 μmoL·L^−1, 24 h, 570 nm, three experiments in triplicate): cell viability decreased
concentration dependence of decrease in cell viability (PC12 cells; 570 nm): decrease in cell viability was dependent on the concentration
Cleavage (%) NEP (human neprilysin (NEP)): <0.01%
Cleavage (%) ACE [2]: <0.01%

YVTVKGFSPLREP [δ-scoliidine]
cell viability (PC12 cells; [6]): cell viability remained unchanged
Cleavage (%) NEP (human neprilysin (NEP)): <0.01%
Cleavage (%) ACE [2]: <0.01%

RPPGFTPFR [Thr^6-bradykinin]
blocking action on ACh receptors [3]: showing a blocking action on ACh receptors

RPPGFSPFR [bradykinin, reference compound]
Cleavage (%) NEP (human neprilysin (NEP)): 100%
Cleavage (%) ACE [2]: 100%

DYVTVKGFSPLRKA [β-scoliidine]
Cleavage (%) NEP (human neprilysin (NEP)): <0.01%
Cleavage (%) ACE [2]: <0.01%

C[S+](C)[O-] [DMSO, reference compound]
cell viability with DMSO (PC12 cells; DMSO 5% (v·v^−1)): decrease in cell viability

PRLRRLTGLSPLRAP [β-campsomerin]
cell growth potentiating effect (neuronal PC12 cells): had no effect

CCOP(=O)(OCC)OP(=O)(OCC)OCC [TEPP, tetraethyl pyrophosphate]
AChE activity with positive control [4]: 27.8 ± 6.5%

DYVTVKGFSPLR [α-scoliidine]
neuroprotective effect against oxidative stress-induced neurotoxicity (PC12 neuronal cells [5]): only β-scoliidine showed a neuroprotective effect

RPPGFTPFRKA [Megascoliakinin]
blocking action on ACh receptors [3]: showing a blocking action on ACh receptors

YVTVKGFSPLR [γ-scoliidine]
cell viability (PC12 cells; [6]): cell viability remained unchanged
Cleavage (%) NEP (human neprilysin (NEP)): <0.01%
Cleavage (%) ACE [2]: <0.01%

PRLRRLTGLSPLR [α-campsomerin]
cell growth potentiating effect (neuronal PC12 cells): showed a cell growth potentiating effect
